Here are results for 28 molecules from US8853213B2, “Bicyclic compound for modulating G protein-coupled receptors” (Hanmi Pharm. Co., Ltd, priority 2011, dated 2014).

A value given as a limit tells only on which side of the number the result lay.

This assay has as its target T1, GPR119 (Homo sapiens, UniProt Q8TDV5).
T1 construct: host or cells: CHO-K1 (CRE-bla reporter, doxycycline-induced)
T1 sequence (Q8TDV5 1-335): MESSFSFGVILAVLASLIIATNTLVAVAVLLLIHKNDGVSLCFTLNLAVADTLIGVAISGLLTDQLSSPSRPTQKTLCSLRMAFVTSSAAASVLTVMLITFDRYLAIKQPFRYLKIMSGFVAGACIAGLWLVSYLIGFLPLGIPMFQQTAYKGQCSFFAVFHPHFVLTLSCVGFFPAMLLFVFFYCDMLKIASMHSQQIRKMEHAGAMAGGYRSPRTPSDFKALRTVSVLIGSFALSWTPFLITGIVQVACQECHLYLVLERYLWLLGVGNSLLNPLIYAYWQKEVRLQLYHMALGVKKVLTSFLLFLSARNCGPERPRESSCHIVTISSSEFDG
As to the kind of experiment: Controlling Effect of GPR119 in CRE-bla CHO-K1 Cells (EC50). The settings on record: GPR119 CRE-bla CHO-K1 cell line, 5 hr incubation with compound, β-lactamase LiveBLAzer-FRET B/G readout; read-out: controlling effect against GPR119 in CRE-bla CHO-K1 cell line (EC50). It is filed as cell-based. The procedure: Controlling Effect of GPR119 in CRE-bla CHO-K1 Cells (EC50)
The day before the experiment, GPR119 CRE-bla CHO-K1 cell line purchased from Invitrogen was seeded in a 96 black well plate in an amount of 80 μl at a density of 5×10^4 cells. After the seeding, 10 μl of doxycycline in a concentration of 1 μg/ml was added to each well and incubated in an incubator at 37° C. under 5% CO2 for about 16 to 20 hr.
The day of experiment, sample compounds were performed a 10-fold serial dilution with a culture medium at various concentrations of 1 uM to […]. Considering that the culture medium used in the seeding and doxycycline are together applied, the sample compounds were diluted to a 5-fold dilution of the planned concentration. 20 μl of the compound diluted with the culture medium was added to each well and incubated in the incubator for 5 hr. The compound-untreated group was added with 20 μl of 0.5% dimethyl sulfoxide (DMSO) diluted with the culture medium. After 5 hr from the incubation, substrate mixture of a 6-fold concentration were prepared; 6 μl of 1 mM LiveBLAzer™-FRET B/G(CCF4-AM) substrate, 60 μl of solution B, 904 μl of solution C and 30 μl of solution D. 12 μl of the substrate mixture was added to each well and allowed to be kept at room temperature for 2 hr with shading the light. Fluorescence intensity value of blue channel and green channel was determined by a fluorescence microplate reader at 409 nm/460 nm and 409 nm/[…] (excitation/emission), respectively. In order to confirm the controlling effect of the inventive compounds against GPR119, EC50 (half maximal effective concentration) was determined based on the determined values. EC50, the concentration at which 50% activity of β-lactamase, was determined according to the following Equation: Equation=[(Ti−Tz)/(C−Tz)]×100
[Wherein, Ti: Cell density of the compound-treated group; Tz: Cell density of the negative control group; and C: Cell density of the positive control group]

For orientation: EC50 means the concentration needed to bring the measured effect to its halfway point. In the case of “7-(2-fluoro-4-4-[1-(5-trifluoromethylpyrimidin-2-yl)-piperidin-4-yloxy]-thieno[3,2-d]pyrimidine [Example 82]”, the EC50 is less than 100 nM.

Take `CS(=O)(=O)c1ccc(-c2csc3c(N4CCC(c5nc(C6CC6)no5)CC4)ncnc23)cc1` [Example 1, 3-cyclopropyl-5-(1-(7-(4-methanesulfonyl-phenyl)thieno[3,2-d]pyrimidin-4-yl)piperidin-4-yl)-1,2,4-oxadiazole]: the half-maximal effective concentration (EC50) is less than 100 nM.

Take `CS(=O)(=O)c1ccc(-c2csc3c(N4CCCC4)ncnc23)cc1` [Example 2, 7-(4-methanesulfonyl-phenyl)-4-(pyrrolidin-1-yl)thieno[3,2-d]pyrimidine]: the EC50 was more than 1000 nM.

Regarding `CS(=O)(=O)c1ccc(-c2csc3c(N4CCCCC4)ncnc23)cc1` [Example 3, 7-(4-methanesulfonyl-phenyl)-4-(piperidin-1-yl)thieno[3,2-d]pyrimidine], the 50% effective concentration (EC50) was more than 1000 nM.

For the molecule `CCc1noc(C2CCN(c3ncnc4c(-c5ccc(S(C)(=O)=O)cc5)csc34)CC2)n1` [Example 4, 3-ethyl-5-(1-(7-(4-methanesulfonyl-phenyl)thieno[3,2-d]pyrimidin-4-yl)piperidin-4-yl)-1,2,4-oxadiazole], the half-maximal effective concentration (EC50) lay in the range of 100 to 1000 nM.

For `CC(C)c1noc(C2CCN(c3ncnc4c(-c5ccc(S(C)(=O)=O)cc5)csc34)CC2)n1` [Example 5, 3-isopropyl-5-(1-(7-(4-methanesulfonyl-phenyl)thieno[3,2-d]pyrimidin-4-yl)piperidin-4-yl)-1,2,4-oxadiazole], the 50% effective concentration (EC50) was less than 100 nM.

As for `CS(=O)(=O)c1ccc(-c2csc3c(N4CCC(c5nc(C6CCCC6)no5)CC4)ncnc23)cc1` [Example 6, 3-cyclopentyl-5-(1-(7-(4-methanesulfonyl-phenyl)thieno[3,2-d]pyrimidin-4-yl)piperidin-4-yl)-1,2,4-oxadiazole], the EC50 is less than 100 nM.

For the molecule `CS(=O)(=O)c1ccc(-c2csc3c(N4CCC(c5nc(C6CCCCC6)no5)CC4)ncnc23)cc1` [Example 7, 3-cyclohexyl-5-(1-(7-(4-methanesulfonyl-phenyl)thieno[3,2-d]pyrimidin-4-yl)piperidin-4-yl)-1,2,4-oxadiazole], the EC50 is less than 100 nM.

On to `CS(=O)(=O)c1ccc(-c2csc3c(N4CCC(c5nc(-c6ccccc6)no5)CC4)ncnc23)cc1` [Example 8, 5-(1-(7-(4-(methanesulfonylphenyl)phenyl)thieno[3,2-d]pyrimidin-4-yl)piperidin-4-yl)-3-phenyl-1,2,4-oxadiazole], for which the concentration giving a half-maximal response (EC50) fell in the range of 100 to 1000 nM.

As to `CC(C)c1noc(N2CCN(c3ncnc4c(-c5ccc(S(C)(=O)=O)cc5)csc34)CC2)n1` [Example 9, 3-isopropyl-5-(4-(7-(4-methanesulfonyl-phenyl)thieno[3,2-d]pyrimidin-4-yl)piperazin-1-yl)-1,2,4-oxadiazole], the EC50 lay within 100 to 1000 nM.

With `CC(C)(C)OC(=O)N1CCN(c2ncnc3c(-c4ccc(S(C)(=O)=O)cc4)csc23)CC1` [Example 10, tert-butyl 4-(7-(4-methanesulfonyl-phenyl)thieno[3,2-d]pyrimidin-4-yl)piperazine-1-carboxylate], the EC50 lay in the range of 100 to 1000 nM.

As for `CCc1cnc(N2CCN(c3ncnc4c(-c5ccc(S(C)(=O)=O)cc5)csc34)CC2)nc1` [Example 11, 4-(4-(5-ethylpyrimidin-2-yl)piperazin-1-yl)-7-(4-methanesulfonyl-phenyl)thieno[3,2-d]pyrimidine], the EC50 fell in the range of 100 to 1000 nM.

For the molecule `CC(C)c1noc(C2CCN(c3ncnc4c(-c5ccc(S(C)(=O)=O)cc5F)csc34)CC2)n1` [Example 12], the EC50 was less than 100 nM.

Consider `CC(C)c1noc(C2CCN(c3ncnc4c(-c5ccc(S(C)(=O)=O)c(F)c5)csc34)CC2)n1` [Example 13], for which the EC50 was more than 1000 nM.

Regarding `CC(C)c1noc(C2CCN(c3ncnc4c(-c5ccc([N+](=O)[O-])cc5)csc34)CC2)n1` [Example 14, 4-[4-(3-isopropyl-[1,2,4]oxadiazol-5-yl)-piperidin-1-yl]-7-(4-nitro-phenyl)-thieno[3,2-d]pyrimidine], the EC50 was more than 1000 nM.

On to `CC(C)c1noc(C2CCN(c3ncnc4c(-c5ccc(C(=O)O)cc5)csc34)CC2)n1` [Example 15, 4-{4-[4-(3-isopropyl-[1,2,4]oxadiazol-5-yl)-piperidin-1-yl]-thieno[3,2-d]pyrimidin-7-yl}-benzoic acid], for which the EC50 lay within 100 to 1000 nM.

For the molecule `COC(=O)c1ccc(-c2csc3c(N4CCC(c5nc(C(C)C)no5)CC4)ncnc23)cc1` [Example 16, 4-{4-[4-(3-isopropyl-[1,2,4]oxadiazol-5-yl)-piperidin-1-yl]-thieno[3,2-d]pyrimidin-7-yl}-benzoic acid methyl ester], the EC50 was 100 to 1000 nM.

For the molecule `CC(C)(C)c1noc(C2CCN(c3ncnc4c(-c5ccc(S(C)(=O)=O)cc5F)csc34)CC2)n1` [Example 17, 4-[4-(3-tert-butyl-[1,2,4]oxadiazol-5-yl)-piperidin-1-yl]-7-(2-fluoro-4-methanesulfonyl-phenyl)-thieno[3,2-d]pyrimidine], the EC50 was less than 100 nM.

In the case of `CS(=O)(=O)c1ccc(-c2csc3c(N4CCC(c5nc(C6CC6)no5)CC4)ncnc23)c(F)c1` [Example 18, 4-[4-(3-cyclopropyl-[1,2,4]oxadiazol-5-yl)-piperidin-1-yl]-7-(2-fluoro-4-methanesulfonyl-phenyl)-thieno[3,2-d]pyrimidine], the EC50 was less than 100 nM.

Consider `CS(=O)(=O)c1ccc(-c2csc3c(N4CCC(c5nc(C6CCCC6)no5)CC4)ncnc23)c(F)c1` [Example 19, 4-[4-(3-cyclopentyl-[1,2,4]oxadiazol-5-yl)-piperidin-1-yl]-7-(2-fluoro-4-methanesulfonyl-phenyl)-thieno[3,2-d]pyrimidine], for which the EC50 was less than 100 nM.

With `CCCS(=O)(=O)c1ccc(-c2csc3c(N4CCC(c5nc(C(C)C)no5)CC4)ncnc23)cc1` [Example 20, 4-[4-(3-isopropyl-[1,2,4]oxadiazol-5-yl)-piperidin-1-yl]-7-(4-(propylsulfonyl)phenyl)-thieno[3,2-d]pyrimidine], the EC50 is less than 100 nM.

Turning to `CC(C)c1noc(C2CCN(c3ncnc4c(-c5ccc(S(=O)(=O)C6CC6)cc5)csc34)CC2)n1` [Example 21, 7-(4-(cyclopropylsulfonyl)phenyl)-4-[4-(3-isopropyl-[1,2,4]oxadiazol-5-yl)-piperidin-1-yl]-thieno[3,2-d]pyrimidine], the EC50 is less than 100 nM.

With `CC(C)c1noc(C2CCN(c3ncnc4c(-c5ccc(S(=O)(=O)C(C)C)cc5)csc34)CC2)n1` [Example 22, 4-[4-(3-isopropyl-[1,2,4]oxadiazol-5-yl)-piperidin-1-yl]-7-(4-(isopropylsulfonyl)phenyl)-thieno[3,2-d]pyrimidine], the 50% effective concentration (EC50) was less than 100 nM.

For `CC(C)c1noc(C2CCN(c3ncnc4c(-c5ccc(S(=O)(=O)C6CCCC6)cc5)csc34)CC2)n1` [Example 23, 7-(4-(cyclopentylsulfonyl)phenyl)-4-[4-(3-isopropyl-[1,2,4]oxadiazol-5-yl)-piperidin-1-yl]-thieno[3,2-d]pyrimidine], the 50% effective concentration (EC50) is less than 100 nM.

Take `CCCS(=O)(=O)c1ccc(-c2csc3c(N4CCC(c5nc(C(C)C)no5)CC4)ncnc23)c(F)c1` [Example 24, 7-4-(2-fluoro-(4-propylsulfonyl)phenyl)-4-[4-(3-isopropyl-[1,2,4]oxadiazol-5-yl)-piperidin-1-yl]-thieno[3,2-d]pyrimidine]: the EC50 is less than 100 nM.

Consider `Cn1cc(-c2ccc(S(C)(=O)=O)cc2)c2ncnc(OC3CCN(C(=O)OC(C)(C)C)CC3)c21` [Example 25, tert-butyl 4-(5-methyl-7-(4-methanesulfonyl-phenyl)-5H-pyrrolo[3,2-d]pyrimidin-4-yloxy)piperidine-1-carboxylate], for which the EC50 is less than 100 nM.

`Cn1cc(-c2ccc(S(C)(=O)=O)cc2)c2ncnc(OC3CCNCC3)c21` [Example 26, 5-methyl-7-(4-methanesulfonyl-phenyl)-4-(piperidin-4-yloxy)-5H-pyrrolo[3,2-d]pyrimidine]: the EC50 is more than 1000 nM.

As for `CCc1cnc(N2CCC(Oc3ncnc4c(-c5ccc(S(C)(=O)=O)cc5)cn(C)c34)CC2)nc1` [Example 27, 4-(1-(5-ethylpyrimidin-2-yl)piperidin-4-yloxy)-5-methyl-7-(4-methanesulfonyl-phenyl)-5H-pyrrolo[3,2-d]pyrimidine], the EC50 was less than 100 nM.
